{"source": "patent US9072766B2", "about": "“Methods of treating obesity by inhibiting nicotinamide N-methyl transferase (NNMT)” (Beth Israel Deaconess Medical Center, Inc., priority 2010, dated 2015)", "format_in_all_cases": "cell-based", "key": {"3T3-L1 adipocytes [1]": {"test_system": "3T3-L1 adipocytes", "experiment": "Lipolysis in 3T3-L1 adipocytes (glycerol release)", "settings": "cultured 3T3-L1 adipocytes (FIG. 13A)", "description": "3T3-L1 were grown in Dulbecco's Modified Eagle's Medium (Gib-co/Invitrogen, Carlsbad, Calif., USA) with 4.5 g/l glucose and 10% fetal bovine serum. Differentiation was induced in two-day-postconfluent cells by supplementing the media with 1 μM insulin, 100 nM dexamethasone, and 500 μM isobutylmethylxanthine for 48 hours, followed by media supplemented with 1 μM insulin for another 48 hours, then normal media until differentiation day 10.\nFully differentiated 3T3-L1 adipocytes (day 10) in 48-well plates were washed, and 100 μl of KRH buffer with 3% BSA and 4 g/l D-glucose with or without 100 nM isoproterenol was added to each well. After 1 hour at 37° C./5% CO2 a 50 μl aliquot from each well was transferred to a 96-well plate; 50 μl of lipolysis assay buffer (Cayman Chemical) were added, and the plate was incubated at room temperature, protected from light, for 30 min. Absorption was measured at 540 nm. A standard curve was included on each plate to allow calculation of the glycerol concentration in the supernatants."}, "3T3-L1 adipocytes [2]": {"test_system": "3T3-L1 adipocytes", "experiment": "Glucose uptake in 3T3-L1 adipocytes", "description": "3T3-L1 were grown in Dulbecco's Modified Eagle's Medium (Gib-co/Invitrogen, Carlsbad, Calif., USA) with 4.5 g/l glucose and 10% fetal bovine serum. Differentiation was induced in two-day-postconfluent cells by supplementing the media with 1 μM insulin, 100 nM dexamethasone, and 500 μM isobutylmethylxanthine for 48 hours, followed by media supplemented with 1 μM insulin for another 48 hours, then normal media until differentiation day 10. Fully differentiated 3T3-L1 adipocytes (day 10) in 48-well plates were serum-starved for 1 hour before incubation with Krebs-Ringer-HEPES (KRH) buffer with or without 10 nM insulin for 30 minutes, followed by addition of 1 mM, 100 nCi [3H]-2-deoxyglucose for 10 minutes. Uptake was stopped by lysing the cells with 0.1% sodium dodecyl sulfate (SDS). Lysates were transferred to liquid scintillation cocktail (Fisher […] 50% Plus) and counted in a Beckman LS counter."}, "3T3-L1 adipocytes [3]": {"test_system": "3T3-L1 adipocytes", "experiment": "Oxygen consumption of 3T3-L1 adipocytes", "description": "3T3-L1 were grown in Dulbecco's Modified Eagle's Medium (Gib-co/Invitrogen, Carlsbad, Calif., USA) with 4.5 g/l glucose and 10% fetal bovine serum. Differentiation was induced in two-day-postconfluent cells by supplementing the media with 1 μM insulin, 100 nM dexamethasone, and 500 μM isobutylmethylxanthine for 48 hours, followed by media supplemented with 1 μM insulin for another 48 hours, then normal media until differentiation day 10. Oxygen consumption was measured with a Rank Brothers oxygen electrode (Rank Brothers Ltd., Cambridge, UK). Cultured cells were trypsinized, counted in a hemocytometer, spun down, and resuspended in respiration buffer (PBS, 2% BSA, 4.5 g/l glucose, 120 mg/l sodium pyruvate) to 1E6/ml. Partial oxygen pressure was recorded using a Rank Brothers digital model 10 and a PowerLab 4/30 data acquisition system (ADInstruments, Colorado Springs, Colo.)."}}}
{"smiles": "CNC(=O)c1cccnc1", "note": "[N-methylnicotinamide]", "values": [{"measurement": "lipolysis (glycerol released into the culture supernatant)", "setting": "3T3-L1 adipocytes [1]", "result": "increased"}, {"measurement": "insulin-dependent glucose uptake", "setting": "3T3-L1 adipocytes [2]; 3T3-L1 adipocytes (FIG. 13B)", "result": "stimulated"}, {"measurement": "basal glucose uptake", "setting": "3T3-L1 adipocytes [2]; no insulin (FIG. 15B)", "result": "stimulated"}, {"measurement": "submaximally insulin-induced glucose uptake", "setting": "3T3-L1 adipocytes [2]; submax insulin (FIG. 15C)", "result": "stimulated"}, {"measurement": "glucose uptake, co-administration with DFMO relative to DFMO alone", "setting": "3T3-L1 adipocytes [2]; submax insulin stimulation (FIG. 15C)", "result": "increase"}, {"measurement": "oxygen consumption in differentiated 3T3-L1 adipocytes", "setting": "3T3-L1 adipocytes [3]; FIG. 12C", "result": "increased"}, {"measurement": "oxygen consumption (FIG. 15A)", "setting": "3T3-L1 adipocytes [3]; text: cultured hepatoma cells, legend: 3T3-L1 adipocytes", "result": "stimulated"}]}
